Measured values from patent US20220348590A1, “CYCLOOXYGENASE-2 INHIBITORS AND USES THEREOF” (The Board Institute, Inc., priority 2019, published 2022).
Where two headings read alike, the source gives them in different places.

Biological target: T1, human recombinant COX2 (hCOX2) (UniProt P35354)
T1 sequence (P35354 1-604): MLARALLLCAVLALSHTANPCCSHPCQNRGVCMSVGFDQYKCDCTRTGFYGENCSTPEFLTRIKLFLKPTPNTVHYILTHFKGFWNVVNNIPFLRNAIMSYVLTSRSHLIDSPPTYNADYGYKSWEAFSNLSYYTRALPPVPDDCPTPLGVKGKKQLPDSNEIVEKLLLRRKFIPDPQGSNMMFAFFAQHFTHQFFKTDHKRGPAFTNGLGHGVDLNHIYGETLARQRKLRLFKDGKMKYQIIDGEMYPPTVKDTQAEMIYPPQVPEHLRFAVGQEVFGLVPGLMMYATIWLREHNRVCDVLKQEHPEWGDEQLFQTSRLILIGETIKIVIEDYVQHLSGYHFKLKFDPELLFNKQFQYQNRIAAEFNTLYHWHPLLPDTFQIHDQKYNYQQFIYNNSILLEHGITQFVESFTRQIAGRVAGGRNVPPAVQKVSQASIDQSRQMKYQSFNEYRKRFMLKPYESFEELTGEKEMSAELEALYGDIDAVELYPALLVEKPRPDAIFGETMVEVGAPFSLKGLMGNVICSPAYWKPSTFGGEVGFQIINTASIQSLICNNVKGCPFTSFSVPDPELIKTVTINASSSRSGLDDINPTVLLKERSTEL
Experiment: LCMS-based COX2 enzymatic inhibition assay (PGE2 quantification)
Type: biochemical
Design: COX2 2 minutes pge2/pge2d4 area ratio Avg; other: 2 minutes; readout pge2/pge2d4 area ratio; average; COX2 2 minutes pge2/pge2d4 area ratio Avg; LLE; average LLE; COX2 2 minutes pge2 area (counts) Avg; readout pge2 area (counts); other: 2 min; "ovine COX2 (oCOX2), human recombinant COX2 (hCOX2)"
Conditions: for COX2 2 minutes pge2/pge2d4 area ratio Avg. LLE / COX2 2 minutes pge2 area (counts) Avg. LLE / COX2 10 minutes pge2 area (counts) Avg. LLE: average LLE; for IC50: average
In short: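 Ovine COX-1 (0.1 μg) or human recombinant COX2 (0.2 μg) in 100 mM Tris.HCl pH 8.0 with hematin and epinephrine, preincubated with inhibitor 10 min at 37 °C. Reaction with 5 μM arachidonic acid stopped after 2 min with HCl; PGE2 quantified by LC-MS-MS. IC50 from 12 concentrations in triplicate.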

[1] = 2 minutes, readout pge2/pge2d4 area ratio
[2] = 2 minutes, readout pge2/pge2d4 area ratio, read-out: COX2 2 minutes pge2/pge2d4 area ratio Avg. IC50
[3] = 2 minutes, readout pge2 area (counts)
[4] = 2 minutes, readout pge2 area (counts), read-out: COX2 2 minutes pge2 area (counts) Avg. IC50
[5] = read-out: COX2 2 minutes pge2/pge2d4 area ratio Avg. IC50 (microM), 2 minutes, readout pge2/pge2d4 area ratio
[6] = 10 minutes, readout pge2 area (counts)
[7] = 10 minutes, readout pge2 area (counts), read-out: COX2 10 minutes pge2 area (counts) Avg. IC50

SMILES | COX2 2 minutes pge2/pge2d4 area ratio Avg. LLE [1] | IC50 [2] [µM] | COX2 2 minutes pge2 area (counts) Avg. LLE [3] | IC50 [4] [µM] | COX2 10 minutes pge2 area (counts) Avg. LLE [6] | IC50 [7] [µM] | IC50 [5] [µM] | IC50 (read-out: COX2 2 minutes pge2/pge2d4 area ratio Avg. IC50 (microM), 2 minutes, readout pge2/pge2d4 area ratio, 2 min) [µM]
CC(C)CN(C)c1cncc(-c2ccc(S(C)(=O)=O)cc2)n1 [Compound 243] | 3.642 | 3.12 | 3.739 | 2.31 |  |  |  | 
CS(=O)(=O)c1ccc(-c2cc(OCc3ccco3)cnn2)cc1 [Compound 323] |  |  |  |  |  |  | 5.2 | 
NS(=O)(=O)c1ccc(-c2cncc(NCc3cccs3)n2)cc1 [Compound 106] | 5.5926 | 0.0916 | 5.699 | 0.0665 |  |  |  | 
CCCCOc1cncc(-c2ccc(S(C)(=O)=O)cc2)n1 [Compound 280] | 3.204 |  |  |  | 4.508 | 0.258 | 5.2 | 
CS(=O)(=O)c1ccc(-c2cncc(OCc3nccs3)c2)cc1 [Compound 289] | 2.234 |  | 2.234 |  |  |  | 5.2 | 
CS(=O)(=O)c1ccc(-c2cncc(OCc3cncs3)n2)cc1 [Compound 138] | 4.957 | 0.202 | 4.957 | 0.198 |  |  |  | 
CS(=O)(=O)c1ccc(-c2cnc(C(F)(F)F)c(OCc3cccs3)n2)cc1 [Compound 118] | 3.641 | 0.114 | 3.56 | 0.153 |  |  |  | 
CS(=O)(=O)c1ccc(-c2cncc(OC[C@@H]3CCCS3)n2)cc1 (single isomer, unassigned) [Compound 170] | 4.61 | 0.442 | 4.149 | 0.931 |  |  |  | 
CS(=O)(=O)c1ccc(-c2cc(S(C)(=O)=O)cc(NCc3cccs3)n2)cc1 [Compound 268] | 2.624 |  | 2.624 |  |  |  | 5.2 | 
CS(=O)(=O)c1ccc(-c2cncc(NC34CC5CC(CC(C5)C3)C4)n2)cc1 [Compound 240] | 2.7806 | 2.82 | 2.394 |  | 2.9969 | 1.31 |  | 
CS(=O)(=O)c1ccc(-c2cccc(C3CC3c3ccoc3)n2)cc1 (single isomer, unassigned) [Compound 322, 2-[2-(furan-3-yl)cyclopropyl]-6-(4-methanesulfonylphenyl)pyridine] |  |  |  |  |  |  |  | 5.2
CS(=O)(=O)c1ccc(-c2cnnc(NCc3cccs3)c2)cc1 [Compound 233] | 2.958 | 2.45 | 2.953 | 3.06 |  |  |  | 
COc1ccc(-c2ccc(S(C)(=O)=O)cc2)nc1NCc1cccs1 [Compound 160] | 3.162 | 0.385 | 3.174 | 0.361 |  |  |  | 
CS(=O)(=O)c1ccc(-c2ccnc(NCc3ccco3)c2)cc1 [Compound 283] |  |  |  |  |  |  | 5.2 | 
CS(=O)(=O)c1ccc(-c2ccc3c(n2)N(Cc2cccs2)C(=O)C3)cc1 [Compound 204] | 2.522 | 1.16 | 2.252 | 2.05 |  |  |  | 

The next lines start with results.

COX2 2 minutes pge2/pge2d4 area ratio Avg. LLE [1] | IC50 [2] [µM] | COX2 2 minutes pge2 area (counts) Avg. LLE [3] | IC50 [4] [µM] | COX2 10 minutes pge2 area (counts) Avg. LLE [6] | IC50 [7] [µM] | SMILES | IC50 [5] [µM] | IC50 (read-out: COX2 2 minutes pge2/pge2d4 area ratio Avg. IC50 (microM), 2 minutes, readout pge2/pge2d4 area ratio, 2 min) [µM]
4.686 | 1.63 | 4.669 | 1.69 |  |  | CS(=O)(=O)c1ccc(-c2cnc(C(N)=O)c(NCc3cccs3)n2)cc1 [Compound 219] |  | 
 | 5.2 |  |  |  |  | CS(=O)(=O)c1ccc(-c2cc(NCc3ccco3)ncn2)cc1 [Compound 277] |  | 
4.543 | 0.25 | 4.9085 | 0.113 |  |  | CS(=O)(=O)c1ccc(-c2cncc(OCc3nccs3)n2)cc1 [Compound 147] |  | 
4.3725 | 0.183 | 4.235 | 0.239 |  |  | CS(=O)(=O)c1ccc(-c2cncc(OCc3ccsc3)n2)cc1 [Compound 134] |  | 
3.07 | 1.25 | 3.131 | 1.06 |  |  | CS(=O)(=O)c1ccc(-c2cccc([C@@H](O)Cc3cccs3)n2)cc1 [Compound 205] |  | 
3.544 | 1.54 | 3.646 | 1.22 |  |  | CS(=O)(=O)c1ccc(-c2cccc(NCc3cnco3)n2)cc1 [Compound 216] |  | 
4.687 | 0.315 | 4.726 | 0.295 |  |  | CS(=O)(=O)c1ccc(-c2cncc(SC[C@H]3CCCO3)n2)cc1 (single isomer, unassigned) [Compound 154] |  | 
 | 0.139 |  | 0.123 |  |  | Cc1ccc(COc2cncc(-c3ccc(S(C)(=O)=O)cc3)n2)s1 [Compound 124] |  | 
 | 0.293 |  | 0.233 |  |  | CS(=O)(=O)c1ccc(-n2ccc3ccc(C(=O)c4cccs4)nc32)cc1 [Compound 151, [1-(4-methylsulfonylphenyl)pyrrolo[2,3-b]pyridin-6-yl]-(2-thienyl)methanone] |  | 
 | 1.51 |  | 1.19 |  |  | CO/N=C(/c1ccc2ccn(-c3ccc(S(C)(=O)=O)cc3)c2n1)c1cccs1 [Compound 214] |  | 
4.855 | 0.006 | 4.615 | 0.0141 |  |  | CS(=O)(=O)c1ccc(-c2cncc(OCc3ccc(Cl)s3)n2)cc1 [Compound 4] |  | 
4.887 | 1.69 | 4.735 | 2.69 | 4.836 | 1.96 | CS(=O)(=O)c1ccc(-c2cncc(NCc3ccc(F)cn3)n2)cc1 [Compound 221] |  | 
 | 0.0686 |  | 0.0584 |  |  | CS(=O)(=O)c1ccc(-n2ncc3ccc(NCc4cccs4)nc32)cc1 [Compound 92] |  | 
 | 0.484 |  | 0.481 |  |  | CS(=O)(=O)c1ccc(-c2cncc(NCc3ccoc3)c2)cc1 [Compound 174] |  | 
 | 0.437 |  | 0.425 |  |  | CS(=O)(=O)c1ccc(-n2ccc3ccc([C@H](O)c4cccs4)nc32)cc1 (single isomer, unassigned) [Compound 168] |  | 
2.819 | 1.01 | 2.726 | 1.38 |  |  | CN(Cc1ccco1)c1cccc(-c2ccc(S(C)(=O)=O)cc2)n1 [Compound 200] |  | 
3.159 | 3.36 | 3.163 | 3.3 |  |  | CC(=O)c1ncc(NCc2cccs2)nc1-c1ccc(S(C)(=O)=O)cc1 [Compound 248] |  | 
3.075 | 3.93 |  |  |  |  | CS(=O)(=O)c1ccc(-c2cccc(NCc3cocn3)n2)cc1 [Compound 254] |  | 
4.859 | 1.53 | 4.845 | 1.58 |  |  | CS(=O)(=O)c1ccc(-c2cncc(NCc3cnco3)n2)cc1 [Compound 215] |  | 
4.956 | 0.103 | 4.897 | 0.122 |  |  | CS(=O)(=O)c1ccc(-c2cccc(NCc3ccoc3)n2)cn1 [Compound 113] |  | 
